In US10214544B2, “Imidazopyridazine and imidazothiadiazole compounds” (Universite de Montreal, priority 2015, dated 2019):

molecular target: PAR4 (Homo sapiens (Human), UniProt Q96RI0); assay: FLIPR assay in PAR4-expressing HEK293 cells (PAR4 antagonist activity); assay type: cell-based; details: inhibition of H-Ala-Phe(4-F)-Pro-Gly-Trp-Leu-Val-Lys-Asn-Gly-NH2-induced intracellular calcium mobilization
Source text: The FLIPR assay is an exemplary in vitro assay for measuring the activity of the PAR4 antagonists of the present invention. In this assay, intracellular calcium mobilization is induced in PAR4 expressing cells by a PAR4 agonist and calcium mobilization is monitored. See, e.g., Example A.
HEK293 cells stably expressing PAR4 were generated by a standard method of transfection of human PAR4 (F2R23) cDNA expression vector and selected based on PAR4 protein expression or mRNA expression. […] These cells also express endogenous PAR1 and can elicit calcium signal upon stimulation with PAR1 agonist peptide. Therefore, the same cells were also used to determine selectivity against PAR1 and agonist activity for both receptors. Cells from HEK293 PAR4 Clone 1.2A (BMS Arctic ID 383940) were propagated and used for calcium mobilization studies.
FLIPR-based calcium mobilization assay in HEK293 cells was used to measure PAR4 antagonism, agonism, and selectivity against PAR1. The activity of the PAR4 antagonists of the present invention were tested in PAR4 expressing cells by monitoring H-Ala-Phe(4-F)-[…]NH2-induced intracellular calcium mobilization. Counter screens for agonist activity and PAR1 antagonist activity were also performed. Briefly, PAR1/PAR4-expressing HEK293 cells were grown in DMEM (Life Technology, Grand Island, N.Y.) containing 10% heat-inactivated FBS, 1% Penicillin-Streptomycin, 10 μg/mL blasticidin, and 100 μg/mL Zeocin at 37° C. with 5% CO2. Cells were plated overnight prior to the experiment in a black 384-well Purecoat Amine clear bottom plate (Becton Dickinson Biosciences, San Jose, Calif.) at 10,000 cells/well in 30 μL growth medium and incubated in a humidified chamber at 37° C. with 5% CO2 overnight. Prior to compound addition, the cell medium was replaced with […] of 1× calcium and magnesium-containing Hank's Balanced Saline Solution (HBSS) (with 20 mM HEPES) and 1:1000 diluted fluorescent calcium indicator (Codex Biosolutions, Gaithersburg, Md.). After a 30 minute incubation period at 37° C. and a further 30 minute incubation and equilibration period at room temperature, 20 μL test compound (diluted in 1× HBSS buffer) was added at various concentrations at 0.17% dimethyl sulfoxide (DMSO) final concentration. Changes in fluorescence intensity were measured using a Functional Drug Screening System (FDSS, Hamamatsu, Japan) to determine agonist activities. The cells were then incubated for 30 minutes at room temperature followed by addition of 20 μL of agonist peptide for antagonist activity measurement. […] Compound potency was derived from 11-point concentration-response curves.
The following Table sets out results obtained employing various compounds of the invention tested in the FLIPR assay. As indicated above, the FLIPR assay, an in vitro assay, measures the PAR4 antagonist activity of compounds tested as described in Example A.

PAR4, sequence (Q96RI0 18-385): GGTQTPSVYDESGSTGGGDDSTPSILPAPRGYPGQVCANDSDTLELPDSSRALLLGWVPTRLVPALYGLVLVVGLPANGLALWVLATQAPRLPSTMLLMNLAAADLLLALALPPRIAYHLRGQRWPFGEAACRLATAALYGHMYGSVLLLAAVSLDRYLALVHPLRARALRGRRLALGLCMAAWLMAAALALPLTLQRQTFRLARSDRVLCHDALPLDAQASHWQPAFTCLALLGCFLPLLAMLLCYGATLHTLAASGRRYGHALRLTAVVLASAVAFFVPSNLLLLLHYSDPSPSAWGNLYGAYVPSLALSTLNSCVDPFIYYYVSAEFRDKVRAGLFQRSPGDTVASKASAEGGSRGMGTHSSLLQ

| SMILES | EC50 [nM] |
| --- | --- |
| COc1cc(OCc2cccc(NC(=O)c3ccc(Cl)cc3)c2)c2cc(-c3cn4nc(OC)sc4n3)oc2c1 [Example 5, 4-Chloro-N-(3-(((6-methoxy-2-(2-methoxyimidazo[2,1-b][1,3,4]thiadiazol-6-yl)benzofuran-4-yl)oxy)methyl)phenyl)benzamide] | 1.3 |
| COc1cc(OCc2cccc(NC(=O)c3ccc(F)c(C(F)(F)F)c3)c2)c2cc(-c3cn4nc(OC)sc4n3)oc2c1 [Example 30] | 1.8 |
| COc1cc(OCc2cccc(NC(=O)c3cc(Cl)cc(OCc4ccccc4)c3)c2)c2cc(-c3cn4nc(OC)sc4n3)oc2c1 [Example 67] | 680 |
| COc1cc(OCc2cccc(NC(=O)c3cccc(Cl)c3Cl)c2)c2cc(-c3cn4nc(OC)sc4n3)oc2c1 [Example 156] | 1.7 |
| COc1cc(OCc2cccc(NC(=O)c3ccnnc3)c2)c2cc(-c3cn4nc(OC)sc4n3)oc2c1 [Example 69] | 12 |
| COc1cc(OCc2cccc(NC(=O)c3cn4nc(C(C)(F)F)sc4n3)c2)c2cc(-c3cn4nc(OC)sc4n3)oc2c1 [Example 68] | 8.9 |
| COc1cc(Cl)cc(C(=O)Nc2cccc(COc3cc(OC)cc4oc(-c5cn6nc(OC)sc6n5)cc34)c2)c1 [Example 63] | 1.4 |
| COc1cc(OCc2ccc3c(c2)N(C(=O)c2cccc(F)c2)CC3)c2cc(-c3cn4nc(OC)sc4n3)oc2c1 [Example 102] | 4.1 |
| COc1cc(OCc2cccc(NC(=O)c3ccno3)c2)c2cc(-c3cn4nc(OC)sc4n3)oc2c1 [Example 155] | 2.3 |
| COc1cc(OCc2cccc(NC(=O)C3CCOCC3)c2)c2cc(-c3cn4nc(OC)sc4n3)oc2c1 [Example 165] | 4.6 |
| COc1cc(OCc2cccc(NC(=O)c3ccccc3F)c2)c2cc(-c3cn4nc(OC)sc4n3)oc2c1 [Example 26] | 0.75 |
| COc1cc(OCc2cccc(NC(=O)c3c(C)noc3C)c2)c2cc(-c3cn4nc(OC)sc4n3)oc2c1 [Example 45] | 2.8 |
| COc1cc(OCc2cccc(NC(=O)c3ccc(OC)nc3)c2)c2cc(-c3cn4nc(OC)sc4n3)oc2c1 [Example 46] | 1.1 |
| COc1cc(OCc2cccc(NC(=O)c3cccc(C)c3)c2)c2cc(-c3cn4nc(OC)sc4n3)oc2c1 [Example 20] | 1.4 |
| COc1cccc(C(=O)Nc2cccc(COc3cc(OC)cc4oc(-c5cn6nc(OC)sc6n5)cc34)c2)c1 [Example 160] | 36 |
| COc1cc(OCc2ccc3c(c2)N(C(=O)c2ccc(C)cc2)CC3)c2cc(-c3cn4nc(OC)sc4n3)oc2c1 [Example 105] | 3.4 |
| COc1cc(OCc2cccc(N(C)C(C)=O)c2)c2cc(-c3cn4nc(OC)sc4n3)oc2c1 [Example 94] | 3.8 |
| COc1cc(OCc2cccc(NC(=O)c3cc(F)ccc3F)c2)c2cc(-c3cn4nc(OC)sc4n3)oc2c1 [Example 154] | 2.2 |
| COc1cc(OCc2cccc(NC(=O)c3cccc(Br)c3)c2)c2cc(-c3cn4nc(OC)sc4n3)oc2c1 [Example 10] | 1.9 |
| COc1cc(OCc2cccc(NC(=O)c3ccccc3Cl)c2)c2cc(-c3cn4nc(OC)sc4n3)oc2c1 [Example 25] | 1.7 |
| COc1cc(OCc2cccc3c2CCN3C(=O)c2ccnnc2)c2cc(-c3cn4nc(OC)sc4n3)oc2c1 [Example 128] | > 3300 |
| COc1cc(OCc2cccc(NC(=O)c3ccc(OC(F)F)cc3)c2)c2cc(-c3cn4nc(OC)sc4n3)oc2c1 [Example 164] | 2 |
| COc1cc(OCc2cccc(N(C)C(=O)c3ccccc3OC)c2)c2cc(-c3cn4nc(OC)sc4n3)oc2c1 [Example 86] | 1.8 |
| COc1cc(OCc2cccc(N(C)C(=O)c3ccc(F)cc3)c2)c2cc(-c3cn4nc(OC)sc4n3)oc2c1 [Example 87] | 5.7 |
| COc1cc(OCc2cccc3c2CCN3C(=O)c2cc(OC(F)F)cc(C(F)(F)F)c2)c2cc(-c3cn4nc(OC)sc4n3)oc2c1 [Example 130] | 5.2 |

| SMILES | EC50 [nM] |
| --- | --- |
| COc1cc(OCc2cccc(NC(=O)c3c(C)noc3-c3ccccc3)c2)c2cc(-c3cn4nc(OC)sc4n3)oc2c1 [Example 59] | 3.5 |
| COc1cc(OCc2cccc(NC(=O)c3cc(F)ccc3C)c2)c2cc(-c3cn4nc(OC)sc4n3)oc2c1 [Example 75] | 1.7 |
| COc1cc(OCc2cccc3c2CCN3C(=O)c2cccc(F)c2)c2cc(-c3cn4nc(OC)sc4n3)oc2c1 [Example 121] | 140 |
| COc1cc(OCc2cccc(NC(=O)NCc3ccccc3)c2)c2cc(-c3cn4nc(OC)sc4n3)oc2c1 [Example 38] | 4.8 |
| COc1cc(OCc2cccc(NC(=O)c3ccc(C(F)(F)F)cc3)c2)c2cc(-c3cn4nc(OC)sc4n3)oc2c1 [Example 153] | 0.99 |
| COc1cc(OCc2ccc3c(c2)N(C(=O)c2csc(C(F)(F)F)n2)CC3)c2cc(-c3cn4nc(OC)sc4n3)oc2c1 [Example 110] | 0.52 |
| COc1cc(OCc2cccc(NC(=O)c3cccc(C#N)c3)c2)c2cc(-c3cn4nc(OC)sc4n3)oc2c1 [Example 16] | 1.4 |
| COc1cc(OCc2cccc(NC(=O)c3cc(C(F)(F)F)ccc3F)c2)c2cc(-c3cn4nc(OC)sc4n3)oc2c1 [Example 140] | 1.5 |
| COc1cc(OCc2cccc3c2CCN3C(=O)c2ccccc2)c2cc(-c3cn4nc(OC)sc4n3)oc2c1 [Example 115, (4-(((6-Methoxy-2-(2-methoxyimidazo[2,1-b][1,3,4]thiadiazol-6-yl)benzofuran-4-yl)oxy)methyl)indolin-1-yl)(phenyl)methanone] | 96 |
| COc1cc(OCc2cccc(NC(=O)c3ccc(C(C)(C)C)cc3)c2)c2cc(-c3cn4nc(OC)sc4n3)oc2c1 [Example 37] | 2.5 |
| COc1cc(OCc2cccc(NC(=O)c3cccnc3F)c2)c2cc(-c3cn4nc(OC)sc4n3)oc2c1 [Example 61] | 1.5 |
| COc1cc(OCc2cccc3c2CCN3C(=O)c2ccc(OC)nc2)c2cc(-c3cn4nc(OC)sc4n3)oc2c1 [Example 127] | 2.9 |
| COc1cc(OCc2cccc(NC(=O)c3ccco3)c2)c2cc(-c3cn4nc(OC)sc4n3)oc2c1 [Example 134] | 5 |
| COc1cc(OCc2cccc(NC(=O)OC(C)(C)C)c2)c2cc(-c3cn4nc(OC)sc4n3)oc2c1 [Example 3, tert-Butyl (3-(((6-methoxy-2-(2-methoxyimidazo[2,1-b][1,3,4]thiadiazol-6-yl)benzofuran-4-yl)oxy)methyl)phenyl)carbamate] | 2.6 |
| COc1cc(OCc2cccc(NC(=O)Cc3cc(C)no3)c2)c2cc(-c3cn4nc(OC)sc4n3)oc2c1 [Example 47] | 6.9 |
| COc1cc(OCc2cccc(NC(=O)c3ccc(OC(F)(F)F)cc3)c2)c2cc(-c3cn4nc(OC)sc4n3)oc2c1 [Example 41] | 1.4 |
| COc1cc(OCc2cccc(N(C)C(=O)c3ccc(C)cc3)c2)c2cc(-c3cn4nc(OC)sc4n3)oc2c1 [Example 89] | 3.5 |
| COc1cc(OCc2cccc(NC(=O)c3ccc(C)cc3)c2)c2cc(-c3cn4nc(OC)sc4n3)oc2c1 [Example 32] | 1.6 |
| COc1cc(OCc2cccc(NC(=O)c3cccn3C)c2)c2cc(-c3cn4nc(OC)sc4n3)oc2c1 [Example 132] | 3.8 |
| COc1cc(OC(F)F)cc(C(=O)Nc2cccc(COc3cc(OC)cc4oc(-c5cn6nc(OC)sc6n5)cc34)c2)c1 [Example 78] | 2.3 |
| COc1cc(OCc2cccc(N(C)C(=O)c3cccc(F)c3)c2)c2cc(-c3cn4nc(OC)sc4n3)oc2c1 [Example 85] | 6.1 |
| COc1cc(OCc2cccc(NC(=O)c3cccc(OC(F)(F)F)c3)c2)c2cc(-c3cn4nc(OC)sc4n3)oc2c1 [Example 6, N-(3-(((6-methoxy-2-(2-methoxyimidazo[2,1-b][1,3,4]thiadiazol-6-yl)benzofuran-4-yl)oxy)methyl)phenyl)-3-(trifluoromethoxy)benzamide] | 1.4 |
| COc1cc(OCc2cccc(NC(=O)CC3CCCC3)c2)c2cc(-c3cn4nc(OC)sc4n3)oc2c1 [Example 138] | 2.5 |
| COc1cc(OCc2ccc3c(c2)N(C(=O)c2ccccc2C)CC3)c2cc(-c3cn4nc(OC)sc4n3)oc2c1 [Example 101] | 3.1 |
| COc1cc(OCc2cccc(NC(=O)c3csc(-c4ccccc4)n3)c2)c2cc(-c3cn4nc(OC)sc4n3)oc2c1 [Example 72] | 2.2 |
